Patent publication US7465581B2, “ANKTM1, a cold-activated TRP-like channel expressed in nociceptive neurons” (The Scripps Research Institute, priority 2002, dated 2008)
Entries after “also recorded” stand apart in the source; their conditions may differ.

Assays:
TRPM8 [1] = target: T1, TRPM8 (Mus musculus, UniProt Q8R4D5); assay: Intracellular calcium imaging (Fura-2) of TRPM8-expressing CHO cells; assay type: cell-based, murine
T1 construct: expressed in transfected cells; host or cells: CHO-K1/FRT cells
T1 sequence (Q8R4D5 whole entry): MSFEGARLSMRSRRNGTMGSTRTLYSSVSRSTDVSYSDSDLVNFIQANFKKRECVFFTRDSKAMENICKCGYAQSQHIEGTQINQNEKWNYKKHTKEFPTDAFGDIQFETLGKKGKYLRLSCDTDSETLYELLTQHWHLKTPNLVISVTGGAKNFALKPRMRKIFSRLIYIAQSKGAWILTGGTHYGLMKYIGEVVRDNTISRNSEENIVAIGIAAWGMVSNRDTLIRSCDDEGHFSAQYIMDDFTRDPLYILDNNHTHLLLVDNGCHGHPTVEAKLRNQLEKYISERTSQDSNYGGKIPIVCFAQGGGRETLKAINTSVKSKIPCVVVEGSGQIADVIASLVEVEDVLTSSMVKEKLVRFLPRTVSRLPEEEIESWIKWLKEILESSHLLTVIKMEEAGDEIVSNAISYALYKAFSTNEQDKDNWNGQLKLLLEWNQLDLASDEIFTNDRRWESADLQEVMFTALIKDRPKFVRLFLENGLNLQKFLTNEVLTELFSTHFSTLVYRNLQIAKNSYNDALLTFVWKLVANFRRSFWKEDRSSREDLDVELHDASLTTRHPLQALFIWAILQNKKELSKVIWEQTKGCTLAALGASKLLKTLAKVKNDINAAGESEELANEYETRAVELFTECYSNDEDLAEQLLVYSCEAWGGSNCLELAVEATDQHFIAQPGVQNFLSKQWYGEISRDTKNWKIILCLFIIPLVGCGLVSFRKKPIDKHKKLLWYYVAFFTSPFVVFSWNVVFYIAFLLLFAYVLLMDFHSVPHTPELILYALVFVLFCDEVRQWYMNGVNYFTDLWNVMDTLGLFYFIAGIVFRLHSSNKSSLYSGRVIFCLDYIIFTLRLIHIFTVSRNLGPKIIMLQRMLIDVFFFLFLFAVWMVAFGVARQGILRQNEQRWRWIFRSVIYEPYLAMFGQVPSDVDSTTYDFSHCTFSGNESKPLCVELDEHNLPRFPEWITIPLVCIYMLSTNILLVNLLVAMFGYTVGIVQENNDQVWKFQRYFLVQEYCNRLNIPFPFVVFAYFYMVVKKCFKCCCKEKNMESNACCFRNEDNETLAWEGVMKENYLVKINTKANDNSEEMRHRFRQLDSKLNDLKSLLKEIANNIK
Description: CHO-K1/FRT cells were stably transfected with full-length murine ANKTM1 in the pcDNA5/FRT vector using Lipofectamine (Invitrogen) according to the manufacturer's protocol. Transfected cells were selected in growth medium containing Hygromycin (200 μg/mL). Northern blot analysis identified stable clones expressing ANKTM1 mRNA. The generation of stable murine TRPM8-expressing CHO-K1/FRT cells has been previously described (Peier et al, 2002). ANKTM1-expressing stable CHO-K1/FRT lines appeared unhealthy (membrane blebbing, cytoplasmic granulations) in culture, and after several passages, a loss of ANTKM1 expression was observed. Previous investigators have also claimed difficulty generating stable cell lines expressing human ANKTM1.
Calcium imaging experiments were performed essentially as described (Peier et al., 2002a, supra). Briefly, cells were plated on glass coverslips 24-48 hours prior to imaging experiments. […]
Images of Fura-2 loaded cells with the excitation wavelength alternating between 340 nm and 380 nm were captured with a cooled […] camera. The ratio of fluorescence intensity of the two wavelengths of groups of 30-50 cells in each experiment was analyzed using MetaFluor (Universal Imaging Corp). […] For ANKTM1 and TRPM8 threshold experiments, the threshold temperature of activation of 60-100 cells each from three replicate experiments was analyzed. […]

TRPV1 [2] = target: T2, TRPV1 (Rattus norvegicus, UniProt O35433); conditions: general statement; cited from earlier work
T2 construct: expressed in transfected cells; host or cells: CHO cells
T2 sequence (O35433 whole entry): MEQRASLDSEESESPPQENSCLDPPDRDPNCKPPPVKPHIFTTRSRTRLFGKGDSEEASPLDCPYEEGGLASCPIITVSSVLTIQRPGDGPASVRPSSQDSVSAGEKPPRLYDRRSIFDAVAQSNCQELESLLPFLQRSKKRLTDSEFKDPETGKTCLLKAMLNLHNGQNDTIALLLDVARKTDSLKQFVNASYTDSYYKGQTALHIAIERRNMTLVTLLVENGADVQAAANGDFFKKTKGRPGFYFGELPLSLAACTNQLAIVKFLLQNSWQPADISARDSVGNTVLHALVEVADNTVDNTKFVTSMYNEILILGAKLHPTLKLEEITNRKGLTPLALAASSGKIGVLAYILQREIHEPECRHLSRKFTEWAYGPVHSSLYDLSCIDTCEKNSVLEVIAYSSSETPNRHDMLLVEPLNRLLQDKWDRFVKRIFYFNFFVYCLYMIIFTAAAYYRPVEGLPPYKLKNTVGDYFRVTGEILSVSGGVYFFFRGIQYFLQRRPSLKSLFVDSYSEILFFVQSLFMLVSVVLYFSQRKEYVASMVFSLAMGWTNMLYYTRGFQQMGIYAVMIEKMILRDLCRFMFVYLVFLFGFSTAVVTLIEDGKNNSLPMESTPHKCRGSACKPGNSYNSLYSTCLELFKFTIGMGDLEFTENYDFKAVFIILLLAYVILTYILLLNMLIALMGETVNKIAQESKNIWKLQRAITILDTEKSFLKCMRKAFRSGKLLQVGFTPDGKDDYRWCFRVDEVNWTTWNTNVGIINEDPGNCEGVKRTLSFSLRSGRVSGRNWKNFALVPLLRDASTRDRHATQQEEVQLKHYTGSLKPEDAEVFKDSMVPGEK

ANKTM1 = target: T3, ANKTM1 (Mus musculus, UniProt Q8BLA8); assay: Intracellular calcium imaging (Fura-2) of ANKTM1-expressing CHO cells; assay type: cell-based, murine; conditions: for activation of ANKTM1-expressing cells by compound: rise in intracellular calcium, 340/380 ratio, FIG. 4B
T3 construct: pcDNA5FRT/TO containing full-length murine ANKTM1; expressed in transfected cells; host or cells: tetracycline-inducible CHO-K1/FRT cells (Flp-In)
T3 sequence (Q8BLA8 whole entry): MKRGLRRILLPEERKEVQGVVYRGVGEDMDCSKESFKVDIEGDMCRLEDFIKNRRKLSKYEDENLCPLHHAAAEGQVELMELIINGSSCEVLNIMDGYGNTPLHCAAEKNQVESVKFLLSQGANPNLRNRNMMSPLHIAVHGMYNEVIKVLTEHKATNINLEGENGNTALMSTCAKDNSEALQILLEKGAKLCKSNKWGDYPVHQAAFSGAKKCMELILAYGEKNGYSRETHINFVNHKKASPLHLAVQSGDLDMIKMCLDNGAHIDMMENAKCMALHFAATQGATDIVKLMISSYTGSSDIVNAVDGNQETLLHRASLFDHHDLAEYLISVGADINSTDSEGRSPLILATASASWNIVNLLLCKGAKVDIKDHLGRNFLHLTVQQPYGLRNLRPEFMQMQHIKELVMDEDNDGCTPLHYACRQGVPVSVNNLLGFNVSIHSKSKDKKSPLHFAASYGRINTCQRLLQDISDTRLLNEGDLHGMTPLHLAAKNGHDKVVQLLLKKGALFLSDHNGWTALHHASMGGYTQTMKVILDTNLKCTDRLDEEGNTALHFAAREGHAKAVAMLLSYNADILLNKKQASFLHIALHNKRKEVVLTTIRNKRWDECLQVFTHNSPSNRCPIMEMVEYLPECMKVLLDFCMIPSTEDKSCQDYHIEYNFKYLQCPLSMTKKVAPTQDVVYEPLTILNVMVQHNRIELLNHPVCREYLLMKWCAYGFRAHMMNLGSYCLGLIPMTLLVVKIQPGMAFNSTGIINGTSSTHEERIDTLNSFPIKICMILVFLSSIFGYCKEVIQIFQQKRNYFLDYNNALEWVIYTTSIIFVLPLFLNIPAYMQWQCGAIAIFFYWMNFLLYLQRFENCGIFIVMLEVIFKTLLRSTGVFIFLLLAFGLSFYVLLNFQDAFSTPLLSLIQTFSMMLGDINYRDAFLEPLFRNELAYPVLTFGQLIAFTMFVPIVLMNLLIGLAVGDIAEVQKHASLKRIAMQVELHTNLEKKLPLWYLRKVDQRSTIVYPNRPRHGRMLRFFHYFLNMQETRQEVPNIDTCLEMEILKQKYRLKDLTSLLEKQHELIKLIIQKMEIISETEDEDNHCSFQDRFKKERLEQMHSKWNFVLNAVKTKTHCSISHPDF
Description: Nevertheless, since ANKTM1 bears similarities to TRP-like channels expressed in sensory neurons, tests were conducted to determine activation of ANKTM1 by various sensory stimuli. To this end, a series of tests were conducted using full-length murine ANKTM1 stably transfected in Chinese Hamster Ovary (CHO) cells containing FRT sites (CHO-K1/FRT) under control of a tetracycline (Tet)-inducible promoter via Flp recombinase mediated recombination. To circumvent this problem, cell lines were generated in which ANKTM1 expression could be controlled. Tetracycline-inducible CHO-K1/FRT cells lines were generated by transfecting the CHO Flp-In host cell line with pcDNA6/TR according to manufacturer's instructions (Invitrogen, San Diego, Calif.) and selected in 5 μg/mL Blasticidin. Clones stably expressing the tetracycline repressor identified by blasticidin resistance were transiently transfected with a control plasmid containing the CAT gene and selected based on high levels of CAT expression after treatment with tetracycline. The gene expression vector; pcDNA5FRT/TO containing full-length murine ANKTM1 and the Flp recombinase expression plasmid pOG44 were co-transfected into the tetracycline-inducible CHO-K1/FRT cell line and selected via Hygromycin resistance (200 μg/ml). Induction of ANKTM1 was accomplished by treating CHO cells with 1-2 μg/mL tetracycline (Tet) 5-24 hours before experiments. Calcium imaging experiments were performed essentially as described (Peier et al., 2002a, supra). Briefly, cells were plated on glass coverslips 24-48 hours prior to imaging experiments. Cells were washed in HEPES buffeted saline solution (2 mM Ca^2+), loaded with Fura-2 acetoxymethyl ester ([…]), 1.5 mM pluronic acid (Molecular Probes, Eugene, Oreg.) and incubated for 1 hour at room temperature in the dark. Coverslips were placed in laminar flow chamber (Warner Instrument Corp., Hamden, Conn.) and perfused with HEPES buffered saline (2 mM Ca^2+) flowing through small-diameter tubing at the inlet of the chamber. Perfusion rate was approximately 2 ml/min and was stopped and started via a solenoid switch (Warner Instrument Corp., Hamden, Conn. Perfusate temperature was controlled by a Peltier device and monitored via miniature thermocouple at the inlet of the chamber. Heated (up to 52° C.), chilled (down to 9° C., the limit of our system), and room temperature buffer was delivered through the same application tubing at the inlet of the chamber. Alternatively, in experiments where the compounds menthol (Sigma, St. Louis, Mo.]), capsaicin (Fluka, Buchs, Switzerland) and Icilin (Tocris Woodson,) were applied, cells were plated on 24-well tissue culture plates and loaded with Fura-2. Compounds were delivered with a 3 cc syringe during a period of ten seconds. Images of Fura-2 loaded cells with the excitation wavelength alternating between 340 nm and 380 nm were captured with a cooled […] camera. The ratio of fluorescence intensity of the two wavelengths of groups of 30-50 cells in each experiment was analyzed using MetaFluor (Universal Imaging Corp). Experiments were performed in triplicate. Unless otherwise indicated, graphs represent averaged responses of 20-40 cells from representative experiments. For direct comparison of results from different experiments, values were normalized to baseline of the ratio 340/380. For ANKTM1 and TRPM8 threshold experiments, the threshold temperature of activation of 60-100 cells each from three replicate experiments was analyzed. Threshold of activation was defined as 20% above baseline. Hanks Balanced Salt Solution (HBSS) and HEPES buffers were obtained from GibcoBRL.

TRPV1 [3] = target: T2, TRPV1; assay: Intracellular calcium imaging (Fura-2) of TRPV1-expressing CHO cells; assay type: cell-based; conditions: rise in intracellular calcium, 340/380 ratio, FIG. 4B
Description: Calcium imaging experiments were performed essentially as described (Peier et al., 2002a, supra). Briefly, cells were plated on glass coverslips 24-48 hours prior to imaging experiments. Cells were washed in HEPES buffeted saline solution (2 mM Ca^2+), loaded with Fura-2 acetoxymethyl ester ([…]), 1.5 mM pluronic acid (Molecular Probes, Eugene, Oreg.) and incubated for 1 hour at room temperature in the dark. Coverslips were placed in laminar flow chamber (Warner Instrument Corp., Hamden, Conn.) and perfused with HEPES buffered saline (2 mM Ca^2+) flowing through small-diameter tubing at the inlet of the chamber. Perfusion rate was approximately 2 ml/min and was stopped and started via a solenoid switch (Warner Instrument Corp., Hamden, Conn. Perfusate temperature was controlled by a Peltier device and monitored via miniature thermocouple at the inlet of the chamber. Heated (up to 52° C.), chilled (down to 9° C., the limit of our system), and room temperature buffer was delivered through the same application tubing at the inlet of the chamber. Alternatively, in experiments where the compounds menthol (Sigma, St. Louis, Mo.]), capsaicin (Fluka, Buchs, Switzerland) and Icilin (Tocris Woodson,) were applied, cells were plated on 24-well tissue culture plates and loaded with Fura-2. Compounds were delivered with a 3 cc syringe during a period of ten seconds. […]

TRPM8 [4] = target: T1, TRPM8; conditions: McKemy et al., 2002; cited from earlier work

## COc1cc(CNC(=O)CCCC/C=C/C(C)C)ccc1O [capsaicin]
TRPM8 [1]; rise in intracellular calcium, 340/380 ratio, FIG. 4B
  activation of TRPM8-expressing cells by compound: did not activate
TRPV1 [2]
  activator of TRPV1: potent activator
ANKTM1
  activation of ANKTM1-expressing cells by compound: did not activate

## O=C1NC(c2cccc([N+](=O)[O-])c2)=CCN1c1ccccc1O [Icilin]
TRPM8 [1]; TRPM8 cells
  delay of response: 15 s
TRPV1 [3]
  activation of TRPV1-expressing cells by compound: did not activate
TRPM8 [4]
  activator of TRPM8: potent activator
ANKTM1; ANKTM1 cells
  delay of response: 15 to 60 s
ANKTM1; comparison with TRPM8-expressing cells
  concentration required for ANKTM1 activation compared to TRPM8: Higher concentrations
ANKTM1
  activation of ANKTM1-expressing cells by compound: activated

## CC1CCC(C(C)C)C(O)C1 (stereo not drawn) [Menthol, menthol]
ANKTM1
  activation of ANKTM1-expressing cells by compound: failed to activate

## N.N.N.N.N.N.N.N.N.N.N.N.N.N.[Cl-].[Cl-].[Cl-].[Cl-].[Cl-].[Cl-].[O-2].[O-2].[Ru+3].[Ru+3].[Ru+4] [ruthenium red]
ANKTM1; 5 μM ruthenium red, pre-incubation or present during cooling, ANKTM1-expressing CHO cells, not entirely recovered after ten minute washout
  block of cold responses by ANKTM1: eliminates cold-evoked responses; also recorded: completely blocked
ANKTM1; 1 μm ruthenium red, multiple experiments
  ANKTM1-containing cells with complete block of the cold response: 90%
